In US5703241A, “Inhibitor of farnesyl-protein transferase” (Merck & Co., Inc., priority 1996, dated 1997):

Legend:
[1] = system: farnesyl-protein transferase in white blood cells; experiment: In vivo pharmacodynamic effects of farnesyl-protein transferase inhibitors in mammalian white blood cells; settings: following a single administration of the compound
Procedure: In vivo pharmacodynamic effects of farnesyl-protein transferase inhibitors in mammalian white blood cells
The test mammal (beagle, Cynomolgus monkey, Rhesus monkey or African green monkey) is dosed by an IV, PO or suppository dose of a given concentration of drug in a suitable vehicle, such as IV:5% EtOH/citrate buffered saline, PO:50 mmol citric acid in water and suppository: 17.7% compound, 38% hydrous lactose; 44.3% PEG 8000.
Following drug dosing, the animals are bled at times t=0, 5 mins., 15 mins., 30 mins., 60 mins., 90 mins., 180 mins.(3 hours), 270 mins. (4.5 hours), 360 mins. (6 hours) and 1440 mins. (24 hours) by withdrawing 3 mL of blood into a sodium heparin vacutainer tube and placing the drawn blood immediately on ice. The vacutainer tubes are then spun at 2800 rpm in a table top centrifuge for 5 minutes at 4 degrees. Following the spin, the upper plasma layer is withdrawn from the vacutainer tube leaving an 1/8" of plasma on top of the blood pellet. The vacutainer tubes and plasma tubes are then put into dry ice for a quick freeze and once frozen, the samples are stored at -70° degrees.
For evaluation of the white blood cells, the frozen vacutainer tube is broken at the bottom utilizing a triangular metal file, and the frozen pellet of blood is removed (prior to breaking the tube it can warmed slightly in a 30° bath taking precautions not to melt the pellet). […]

[2] = target: T1, human FPTase (Homo sapiens, UniProt P49354+P49356); experiment: In vitro inhibition of human farnesyl-protein transferase ([3H]-FPP incorporation into Ras-CVIM); format: biochemical; settings: 100 nM Ras-CVIM, 30 min, read-out: IC50, inhibitory activity against human FPTase
T1 construct: made in house

IC50 [2] [µM] | Compound | inhibition of FPTase in white blood cells of mammals [1]
– | COc1ccccc1CN(CC(=O)N[C@@H](CCSC)C(=O)OC(C)C)C[C@@H]1CCCN1C(=O)CCc1c[nH]cn1 [Example 1, N-[1-(1H-Imidazol-4-propionyl)pyrrolidin-2(S)-ylmethyl]-N-(2-methoxybenzyl) glycyl-methionine isopropyl ester] | sustained inhibition of FPTase in white blood cells
< 10 | COc1ccccc1CN(CC(=O)N[C@@H](CCSC)C(=O)O)C[C@@H]1CCCN1C(=O)CCc1c[nH]cn1 [Example 2, N-[1-(1H-Imidazol-4-propionyl)pyrrolidin-2(S)-ylmethyl]-N-(2-methoxybenzyl)glycyl-methionine] | –
